Biological target: T1, 3-phosphoinositide-dependent protein kinase 1 (Homo sapiens, UniProt O15530)
T1 sequence (O15530 whole entry): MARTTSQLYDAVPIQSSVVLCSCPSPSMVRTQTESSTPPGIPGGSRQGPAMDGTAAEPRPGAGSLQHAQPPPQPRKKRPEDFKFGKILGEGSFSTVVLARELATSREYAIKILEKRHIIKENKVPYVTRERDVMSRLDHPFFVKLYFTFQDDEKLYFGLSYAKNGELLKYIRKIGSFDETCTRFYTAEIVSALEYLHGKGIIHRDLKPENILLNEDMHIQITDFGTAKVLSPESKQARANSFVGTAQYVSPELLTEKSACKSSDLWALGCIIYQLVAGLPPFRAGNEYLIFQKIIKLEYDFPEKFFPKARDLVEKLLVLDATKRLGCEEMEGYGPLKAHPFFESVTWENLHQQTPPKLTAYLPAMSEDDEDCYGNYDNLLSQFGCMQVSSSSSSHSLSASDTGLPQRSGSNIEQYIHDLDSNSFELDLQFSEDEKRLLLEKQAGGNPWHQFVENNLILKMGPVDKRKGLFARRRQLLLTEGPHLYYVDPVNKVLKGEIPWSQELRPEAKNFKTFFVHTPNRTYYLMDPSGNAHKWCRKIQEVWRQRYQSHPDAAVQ
Experiment: PDK1 kinase assay: PDK1 (amino acids 51-359) and AKT2 (amino acids 140-467 fused to PIFtide, amino acids […]) were expressed as N-terminally tagged GST fusion proteins in insect cells and purified to homogeneity. Enzyme activity was determined in a coupled PDK1/AKT/FAM-crosstide assay and phosphorylation of FAM-crosstide was determined by standard IMAP protocol (Molecular Devices). For inhibition studies, compounds were titrated 4-fold in DMSO and diluted 40-fold into assay buffer (10 mM Tris HCl pH7.2; 10 mM MgCl2; 0.01% Triton X-100; 1 mM DTT) containing PDK1, AKT2, and FAM-crosstide (final concentrations: 0.75 nM PDK1, 10 nM unphosphorylated AKT2, and 100 nM crosstide substrate). The kinase reaction was initiated by adding ATP to a final concentration of 40 μM of PDK1 and incubated at 25° C. for 30 min. To detect assay product, the kinase reaction was combined with Progressive Binding Solution (1:600 Progressive Binding Reagent, 50% Buffer A, 50% Buffer B, Molecular Devices) in a 1:3 ratio. The mixture was incubated for 2 hours at 25° C. and the plate was scanned on an Analyst AD with excitation at 485 nm and emission at 530 nm. The fluorescence polarization value P is defined by the equation below. The value mP is generated by multiplying the P value for each reaction well by a factor of 1000. The value ΔmP for each well is the mP value for that well minus the mP value for the average negative control. P=(Fpar−Fperp)/(Fpar+Fperp) Eq.:Where par is fluorescence intensity parallel to the excitation plane; and perp is fluorescence intensity perpendicular to the excitation plane. ΔmP values were plotted as a function of compound concentration and the data were analyzed with a 4-parameter fit using GraphPad Prism software.
Assay type: biochemical

| SMILES | IC50 [nM] |
| --- | --- |
| C[C@H](NC(=O)c1cccnc1NCc1ccc(-c2cc3c(cn2)ncn3C)s1)c1ccc(F)cc1 | > 5000 |
| COCCNC(=O)c1cccnc1NCc1ccc(-c2ccc3ncnc(N)c3c2)s1 | > 5000 |
| CCc1cnc(NCc2ccc(-c3ccc4ncnc(N)c4c3)s2)c(C(=O)NCc2ccc(F)c(F)c2)c1 | < 100 |
| N#Cc1cc(F)ccc1NC(=O)c1cc(C(F)(F)F)cnc1NCc1ccc(-c2cnc3[nH]nc(N)c3c2)cc1 | < 100 |
| C[C@H](NC(=O)c1cc(C#N)cnc1N[C@H](C)c1ccc(-c2cnc3[nH]nc(N)c3c2)nc1)c1ccc(F)cc1 | < 100 |
| C[C@H](NC(=O)c1nc(C(F)(F)F)cnc1N[C@H](C)c1ccc(-c2cnc3[nH]nc(N)c3c2)cc1)c1ccc(F)c(F)c1 | < 100 |
| Nc1ncc(-c2ccc(CNc3ncc(C(F)(F)F)cc3C(=O)Nc3ccc(F)cc3)cc2)nc1CO | < 100 |
| Cc1nc(N)cnc1-c1ccc(CNc2ncc(C#N)cc2C(=O)N[C@@H](C)c2ccc(F)cc2)cc1 | > 5000 |
| Cc1ccc(NC(=O)c2cccnc2NCc2ccc(-c3ccc4ncnc(N)c4c3)s2)cc1F | > 5000 |
| N#Cc1cnc(NCc2ccc(-c3cnc4[nH]ncc4c3)cc2)c(C(=O)NCc2ccc(F)c(F)c2)c1 | < 100 |
| Nc1ncnc2ccc(-c3ccc(CNc4ncc(Br)cc4S(=O)(=O)NCc4ccc(F)c(F)c4)s3)cc12 | > 5000 |
| C[C@H](NC(=O)c1nc(C(F)(F)F)cnc1NCc1ccc(-c2cnc3[nH]nc(N)c3c2)cc1)c1ccc(F)c(F)c1 | < 100 |
| C[C@H](NC(=O)c1cc(C#N)cnc1NCc1ccc(-c2cnc3[nH]nc(N)c3c2)cc1F)c1ccc(F)cc1 | < 100 |
| Nc1ncnc2ccc(-c3ccc(CNc4ncccc4C(=O)NCc4cncc(F)c4)s3)cc12 | < 100 |
| C[C@H](NC(=O)c1nc(C#N)cnc1N[C@H](C)c1ccc(-c2cnc3[nH]nc(N)c3c2)nc1)c1ccc(F)c(F)c1 | < 100 |

The remaining lines, values ahead:

| IC50 [nM] | SMILES |
| --- | --- |
| < 100 | C[C@H](NC(=O)c1cc(C#N)cnc1NCc1ccc(-c2cnc3[nH]c(=O)[nH]c3c2)c(F)c1)c1ccc(F)cc1 |
| < 100 | C[C@H](NC(=O)c1cc(C#N)cnc1NCc1ccc(-c2cnc3[nH]c(=O)n(C)c3c2)cc1)c1ccc(F)cc1 |
| < 100 | C[C@H](NC(=O)c1nc(C#N)cnc1NCC#Cc1ccc2nc(N)ncc2c1)c1ccc(F)c(F)c1 |
| < 100 | C[C@H](NC(=O)c1nc(C#N)cnc1NCc1ccc(-c2cnc(N)c(CO)n2)cc1)c1ccc(F)c(F)c1 |
| < 100 | C[C@H](NC(=O)c1cc(C#N)cnc1NCc1ccc(-c2cnc3[nH]nc(N)c3c2)cc1Cl)c1ccc(F)cc1 |
| < 100 | C[C@H](NC(=O)c1cc(C#N)cnc1NCC#Cc1ccc2nc(N)ncc2c1)c1ccc(F)cc1 |
| < 100 | C[C@H](NC(=O)c1cccnc1NCc1ccc(-c2ccc3ncnc(NCCO)c3c2)s1)c1ccc(F)cc1 |

Source: ChEMBL document CHEMBL5725671, “Heterocyclic compounds useful as PDK1 inhibitors” (2018)
